Assay results: patent US20260130881A1, “SUSTAINED RELEASE DEVICE CONTENTS FOR TREATMENT OF PARKINSON'S DISEASE AND OTHER DISORDERS” (priority 2024, published 2026)

Settings: human, in vivo

N[C@@H](Cc1ccc(O)c(O)c1)C(=O)O [levodopa]
AUC_0-6 h: 1423.0 ± 919.5 ng·h/mL
